Earlier results as cited in publication PMC7756498 (Chemistry (Weinheim an Der Bergstrasse, Germany), 2020).

Tested on: P. aeruginosa
Conditions: ref [18]

For sansanmycin B [sansanmycin B 13], the “MIC (anti-Pseudomonas activity)” value is listed as 4 to 16 µg/mL.
